Data: patent publication US10596095B2, “Method for moisturizing skin using P-113 peptide” (PACGEN LIFE SCIENCE CORPORATION, priority 2015, dated 2020)

Legend:
cells = assay: Cytotoxicity test: MTT assay of cell survival rate; assay type: cell-based; conditions: 0, 20, 100 and 200 μg/ml; treated 2 hours; FIG. 2
Description: The cytotoxicity test was performed with Methylthiazol tetrazolium bromide (MTT) assay to test the cell survival rate. The principle was that MTT is a water-soluble yellow dye, after reacting with cells it was reduced by the NADPH in the cells to become an insoluble dark blue crystal, then the blue crystal was dissolved with dimethyl sulfoxide (DMSO), the absorbance value was analyzed, the stronger the cell activity, the darker the blue, and when the cell was dead, it became yellow.
In the present invention, from low to high concentration (0, 20, 100 and 200 μg/ml) of P-113 peptide and the MI preservative were used to treat the cells for 2 hours, then the MTT solution was added for reaction, a spectrophotometer at the wavelength of 595 nm was used to analyze the cell survival rate, and the harmful toxic effect of the cosmetic raw material on the cells was determined.

[1] = Moisture absorption rate in Conway's dish at defined relative humidity; assay type: physicochemical; conditions: relative humidity 32%; 30° C., 24 hours; relative to hyaluronic acid at RH 32% set as 100%; FIG. 3
Description: The moisture absorption of the P-113 peptide was determined by dissolving magnesium chloride (MgCl2) and potassium chloride (KCl), two types of salts, in water, preparing supersaturated solutions based on the respective solubility of these two types of salts, placing the solutions in sealed bottles to create a relative humidity of 32% and 84%, respectively, then taking P-113 peptide and hyaluronic acid for comparison test. The hyaluronic molecule of hyaluronic acid could carry up to 500 folds of water. The hyaluronic acid is currently recognized as the best moisturizing ingredient, and widely used in cosmetics and skincare products.
0.1 g of P-113 peptide and hyaluronic acid powder were weighed and placed in the internal chamber of a Conway's dish, saturated solutions were added in the external chamber, oil was applied on the rim of the Conway's dish lid to seal it completely, placed in an oven at 30° C. for 24 hours, then samples were removed and weighed.
Moisture absorption rate under different humidity was calculated by the following formula: Moisture absorption rate (%)=[(Wt−W0)/W0]×100%
(§1) wherein W0: the weight (g) of the initial sample, and Wt: the weight (g) of the sample removed after 24 hours.

[2] = Moisture retention rate in Conway's dish at defined relative humidity; assay type: physicochemical; conditions: relative humidity 32%; 30° C., 24 hours; reference set as 100%; FIG. 4
Description: In addition, the moisture retention and water absorption of P-113 peptide were determined by dissolving magnesium chloride (MgCl2) and potassium chloride (KCl), two types of salts, in water, preparing supersaturated solutions based on the solubility of these two types of salt respectively, separately placing in sealed bottles to create a relative humidity of 32% and 84% respectively, then using P-113 peptide and hyaluronic acid for comparison test.
0.1 g of P-113 peptide and hyaluronic acid powder were weighed and placed in the internal chamber of a Conway's dish, then 0.1 ml of deionized water was added, saturated solutions were then added in the external chamber, sealed with the Conway's dish lid and placed in the oven at 30° C. for 24 hours, then samples were removed and weighed.
Moisture retention at different humidity levels was calculated according to the following formula: Moisture retention rate (%)=[1−((Wt−W0)/W0)]×100%
as §1

Compound	cell survival rate (MTT) (cells)	moisture absorption rate [1] [%]	moisture retention rate [2] [%]
Cn1sccc1=O [MI, Methylisothiazolinone]	decreased the cell survival rate		
hyaluronic acid		100	100
